Experimental data published in PubChem BioAssay (NCI).
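96-well plates; 48 h exposure; 5 concentrations. Endpoints by linear interpolation between flanking doses. Not reached: highest tested concentration assigned. At the GI50, growth is halved. TGI marks complete inhibition of growth.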

Key:
Test in all cases: DTP human tumour cell line panel, 48 h
[1] = tested on: M14 melanoma
[2] = tested on: DU-145 prostate
[3] = tested on: HS 578T breast
[4] = tested on: HCT-15 colon
[5] = tested on: MALME-3M melanoma
[6] = tested on: SNB-75 CNS
[7] = tested on: SNB-19 CNS
[8] = tested on: HT29 colon
[9] = tested on: BT-549 breast
[10] = tested on: HOP-62 NSCLC

`O=C(c1ccc2ccccc2c1)c1nc2cc(F)ccc2[n+]([O-])c1C(F)(F)F` was tested, and the GI50 [1] was 17.8 µM, the TGI [1] was 34 µM and the GI50 [2] was 20.9 µM. For the same compound, the TGI [2] was 45.8 µM, the GI50 [3] was 21.9 µM and the TGI [3] was 56.9 µM. It also gave a GI50 [4] of 13 µM, a TGI [4] of 27.8 µM and a GI50 [5] of 17.3 µM. For the same compound, the TGI [5] was 32.9 µM, the GI50 [6] was 17 µM and the TGI [6] was 35.9 µM. For the same compound, the GI50 [7] was 19.4 µM, the TGI [7] was 37.8 µM and the GI50 [8] was 16.3 µM. For the same compound, the TGI [8] was 35.2 µM, the GI50 [9] was 17.5 µM and the TGI [9] was 33 µM. The GI50 [10] was 34.4 µM and the TGI [10] was over 100 µM.
In the case of `COc1ccc(C(=O)c2sc3nc(-c4ccccc4OC)ccc3c2N)cc1OC`, the GI50 [1] is reported as 6.05 µM, the TGI [1] is reported as over 100 µM and the GI50 [2] is reported as 27.9 µM. For the same compound, the TGI [2] was over 100 µM, the GI50 [3] was 4.26 µM and the TGI [3] was 74.2 µM. For the same compound, the GI50 [4] was 6.13 µM, the TGI [4] was over 100 µM and the GI50 [5] was 3.65 µM. The TGI [5] was over 100 µM, the GI50 [6] was 4.34 µM and the TGI [6] was 23.4 µM. The GI50 [7] was 22.8 µM, the TGI [7] was over 100 µM and the GI50 [8] was 4.9 µM. It also gave a TGI [8] of over 100 µM, a GI50 [9] of 3.14 µM and a TGI [9] of 17 µM. For the same compound, the GI50 [10] was 18.7 µM and the TGI [10] was over 100 µM.
Work on `CCCC1(CN2c3ccccc3Sc3ccc(Cl)cc32)CCN(CC)C1` (stereo not given) yielded a GI50 [1] of 1.86 µM, a TGI [1] of 3.49 µM and a GI50 [2] of 1.81 µM. The TGI [2] was 3.37 µM, the GI50 [3] was 1.83 µM and the TGI [3] was 4.88 µM. The GI50 [4] was 1.88 µM, the TGI [4] was 3.84 µM and the GI50 [5] was 1.88 µM. The TGI [5] was 3.63 µM, the GI50 [6] was 1.77 µM and the TGI [6] was 3.74 µM. It also gave a GI50 [7] of 2 µM, a TGI [7] of 3.78 µM and a GI50 [8] of 1.88 µM. For the same compound, the TGI [8] was 3.75 µM, the GI50 [9] was 1.8 µM and the TGI [9] was 3.37 µM. For the same compound, the GI50 [10] was 1.59 µM and the TGI [10] was 3.08 µM.
In the case of `CCOC(=O)c1ccc(NC(=O)NC2=NCCS2)cc1`, the GI50 [1] is reported as 2.66 µM, the TGI [1] is reported as over 100 µM and the GI50 [2] is reported as 1.71 µM. For the same compound, the TGI [2] was over 100 µM, the GI50 [3] was 1.97 µM and the TGI [3] was over 100 µM. The GI50 [4] was 8.54 µM, the TGI [4] was over 100 µM and the GI50 [5] was 0.465 µM. For the same compound, the TGI [5] was over 100 µM, the GI50 [6] was 0.252 µM and the TGI [6] was over 100 µM. For the same compound, the GI50 [7] was 2.86 µM, the TGI [7] was over 100 µM and the GI50 [8] was over 93.5 µM. It also gave a TGI [8] of over 100 µM, a GI50 [9] of 0.84 µM and a TGI [9] of over 40.1 µM. The GI50 [10] was 1.75 µM and the TGI [10] was over 100 µM.
`C=C1C(=O)O[C@H]2[C@H]1CC/C(COC(=O)NCc1ccc(Cn3c(=O)sn(CCCCC)c3=O)cc1)=C\CC[C@@]1(C)O[C@@H]21` was tested, and the GI50 [1] was 1.89 µM, the TGI [1] was 4.76 µM and the GI50 [2] was 1.68 µM. The TGI [2] was 3.04 µM, the GI50 [3] was 2.79 µM and the TGI [3] was 14 µM. It also gave a GI50 [4] of 1.66 µM, a TGI [4] of 3.23 µM and a GI50 [5] of 1.61 µM. For the same compound, the TGI [5] was 3.4 µM, the GI50 [6] was 1.59 µM and the TGI [6] was 4.07 µM. The GI50 [7] was 5.06 µM, the TGI [7] was 17.5 µM and the GI50 [8] was 2.09 µM. For the same compound, the TGI [8] was 3.89 µM, the GI50 [9] was 1.91 µM and the TGI [9] was 4.62 µM. For the same compound, the GI50 [10] was 9.53 µM and the TGI [10] was 22.6 µM.
For `NC(=O)c1cccnc1`, the GI50 [1] was over 100 µM, the TGI [1] was over 100 µM and the GI50 [2] was over 100 µM. For the same compound, the TGI [2] was over 100 µM, the GI50 [3] was over 100 µM and the TGI [3] was over 100 µM. The GI50 [4] was over 100 µM, the TGI [4] was over 100 µM and the GI50 [5] was over 100 µM. For the same compound, the TGI [5] was over 100 µM, the GI50 [6] was over 100 µM and the TGI [6] was over 100 µM. It also gave a GI50 [7] of over 100 µM, a TGI [7] of over 100 µM and a GI50 [8] of over 100 µM. For the same compound, the TGI [8] was over 100 µM, the GI50 [9] was over 100 µM and the TGI [9] was over 100 µM. For the same compound, the GI50 [10] was over 100 µM and the TGI [10] was over 100 µM.
`Clc1ccc(/C=C/c2ccc3ccccc3n2)cc1` showed a GI50 [1] of 0.298 µM, a TGI [1] of 1.01 µM and a GI50 [2] of 2.23 µM. For the same compound, the TGI [2] was 5.41 µM, the GI50 [3] was 0.617 µM and the TGI [3] was 10.5 µM. For the same compound, the GI50 [4] was 2.08 µM, the TGI [4] was over 100 µM and the GI50 [5] was 0.934 µM. It also gave a TGI [5] of 71.8 µM, a GI50 [6] of 2.63 µM and a TGI [6] of over 67.1 µM. The GI50 [7] was 1.56 µM, the TGI [7] was over 100 µM and the GI50 [8] was 2.62 µM. The TGI [8] was 8.8 µM, the GI50 [9] was 3.16 µM and the TGI [9] was over 71.8 µM. The GI50 [10] was over 100 µM and the TGI [10] was over 100 µM.
`CC(NC(=O)Cc1ccc(C(F)(F)P(=O)(OCc2ccc([N+](=O)[O-])o2)N(C)CCCCCl)cc1)c1ccc(OCC2CCCCC2)c(C(N)=O)c1` (stereo not given) was tested, and the GI50 [1] was 0.398 µM, the TGI [1] was 1.99 µM and the GI50 [2] was 6.2 µM. The TGI [2] was 16.7 µM, the GI50 [3] was 8.21 µM and the TGI [3] was 38.4 µM. For the same compound, the GI50 [4] was 4.85 µM, the TGI [4] was 16.1 µM and the GI50 [5] was 4.62 µM. It also gave a TGI [5] of 16.3 µM, a GI50 [6] of 4.7 µM and a TGI [6] of 9.97 µM. It also gave a GI50 [7] of 8.97 µM, a TGI [7] of 29.7 µM and a GI50 [8] of 5.8 µM. It also gave a TGI [8] of 21.2 µM, a GI50 [9] of 5.27 µM and a TGI [9] of 13.5 µM. For the same compound, the GI50 [10] was 4.08 µM and the TGI [10] was 12.1 µM.
Work on `c1ccc(-c2nc3n(c2-c2ccc4c(c2)OCO4)CCC3)nc1` yielded a GI50 [1] of 6.77 µM, a TGI [1] of over 20.3 µM and a GI50 [2] of 7.22 µM. The TGI [2] was over 25 µM, the GI50 [3] was 8.24 µM and the TGI [3] was over 25 µM. The GI50 [4] was 0.766 µM, the TGI [4] was over 25 µM and the GI50 [5] was 8.19 µM. It also gave a TGI [5] of over 23.4 µM, a GI50 [6] of 6.42 µM and a TGI [6] of over 25 µM. It also gave a GI50 [7] of 8.74 µM, a TGI [7] of over 25 µM and a GI50 [8] of 7.79 µM. The TGI [8] was over 25 µM, the GI50 [9] was 10 µM and the TGI [9] was over 25 µM. The GI50 [10] was 4.93 µM and the TGI [10] was over 17.6 µM.
Compound `C=CC(C)(C)n1cc(C2=C(O)C(=O)C(c3cn(C(C)(C)C=C)c4ccccc34)=C(O)C2=O)c2ccccc21` has a TGI [1] of 8.5 µM, a TGI [2] of 18.9 µM and a TGI [3] of 5.11 µM. It also gave a TGI [4] of 5.01 µM, a TGI [5] of 11.1 µM and a TGI [6] of 7.77 µM. The TGI [7] was 7.38 µM, the TGI [8] was 16.2 µM and the TGI [9] was 3.63 µM. The TGI [10] was 8.43 µM.
`COc1cc(OCc2cccc(-c3ccccc3)c2C)cc(OC)c1CN1CCCCC1C(=O)NCCOCCOCCN` (stereo not given) was tested, and the GI50 [1] was 1.84 µM, the TGI [1] was 3.57 µM and the GI50 [2] was 4.61 µM. The TGI [2] was 16.1 µM, the GI50 [3] was 1.93 µM and the TGI [3] was 4.56 µM. For the same compound, the GI50 [4] was 3.09 µM, the TGI [4] was 11.1 µM and the GI50 [5] was 1.55 µM. For the same compound, the TGI [5] was 3.05 µM, the GI50 [6] was 2.22 µM and the TGI [6] was 17.7 µM. It also gave a GI50 [7] of 2.95 µM, a TGI [7] of 10.6 µM and a GI50 [8] of 2.38 µM. The TGI [8] was 6.65 µM, the GI50 [9] was 11.5 µM and the TGI [9] was 24.7 µM. The GI50 [10] was 2.3 µM and the TGI [10] was 6.06 µM.
